According to ChEMBL document CHEMBL6134853, “Design, Synthesis, and Biological Evaluation of Pyrrolo[1,2-a]quinoxalin-4(5H)-one Derivatives as Potent and Orally Available Noncovalent Bruton's Tyrosine Kinase (BTK) Inhibitors” (J Med Chem, 2025):
Values after ≈ are worked out from the molar mass of the structure shown.

Assays:
[1] = Aqueous solubility of compound in PBS buffer at pH 7.4 by HPLC analysis; format: physicochemical
[2] = molecular target: Tyrosine-protein kinase BTK (Homo sapiens, UniProt Q06187); test: Inhibition of BTK (unknown origin) by HTRF analysis
U-937 [3] = test: Antiproliferative activity against human U-937 cells expressing BTK assessed as inhibition of cell proliferation incubated for 48 hrs by CCK-8 assay; format: functional, cell-based; settings: U-937, 48 h
Ramos = test: Antiproliferative activity against human Ramos cells expressing BTK assessed as inhibition of cell proliferation incubated for 48 hrs by CCK-8 assay; format: functional, cell-based
[4] = Tmax in male Sprague-Dawley rat at 10 mg/kg, po measured up to 5 hrs by LC-MS/MS analysis; format: ADME, organism-based; settings: in vivo
[5] = Cmax in male Sprague-Dawley rat at 10 mg/kg, po measured up to 5 hrs by LC-MS/MS analysis; format: ADME, organism-based; settings: in vivo
[6] = AUC (0 to 5 hrs) in male Sprague-Dawley rat at 10 mg/kg, po measured up to 5 hrs by LC-MS/MS analysis; format: ADME, organism-based; settings: in vivo
[7] = MRT (0 to 5 hrs) in male Sprague-Dawley rat at 10 mg/kg, po measured up to 5 hrs by LC-MS/MS analysis; format: ADME, organism-based; settings: in vivo
[8] = Metabolic stability in rat liver microsome measured for 60 mins by UHPL-UV-HRMS analysis; format: ADME; settings: microsomes, 1 h
[9] = AUC (0 to t) in male Sprague-Dawley rat at 10 mg/kg, po measured up to 24 hrs by LC-MS/MS analysis; format: ADME, organism-based; settings: in vivo
U-937 [10] = test: Antitumor activity against human U-937 cells xenografted in BALB/c mouse assessed as tumor growth inhibition at 50 mg/kg, po administered once a day for 14 days; format: functional; settings: U-937, 336 h, time 14 day, read-out: TGI

Tyrosine-protein kinase BTK, sequence (Q06187 whole entry): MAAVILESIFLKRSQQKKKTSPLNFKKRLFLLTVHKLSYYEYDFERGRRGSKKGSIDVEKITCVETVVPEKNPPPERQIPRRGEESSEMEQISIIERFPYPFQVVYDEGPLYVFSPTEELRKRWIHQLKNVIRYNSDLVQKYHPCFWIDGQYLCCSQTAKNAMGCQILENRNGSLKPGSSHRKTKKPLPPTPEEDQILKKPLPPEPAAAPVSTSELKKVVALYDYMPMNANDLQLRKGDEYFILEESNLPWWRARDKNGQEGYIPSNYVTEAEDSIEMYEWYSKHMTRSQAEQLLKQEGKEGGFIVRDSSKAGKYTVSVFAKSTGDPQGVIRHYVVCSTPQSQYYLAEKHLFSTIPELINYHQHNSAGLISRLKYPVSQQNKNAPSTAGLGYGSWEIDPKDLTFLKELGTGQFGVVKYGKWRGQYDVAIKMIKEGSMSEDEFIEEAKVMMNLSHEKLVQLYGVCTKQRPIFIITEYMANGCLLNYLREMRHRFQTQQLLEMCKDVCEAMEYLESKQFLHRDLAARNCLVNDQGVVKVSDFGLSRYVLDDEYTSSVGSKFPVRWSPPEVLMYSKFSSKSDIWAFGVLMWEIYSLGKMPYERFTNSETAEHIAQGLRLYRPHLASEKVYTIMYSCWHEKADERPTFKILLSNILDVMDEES

SMILES	IC50 [2] [µM]	IC50 (U-937 [3]) [µM]	IC50 (Ramos) [µM]	also measured
Cc1c(-c2ccc3n2Cc2ccc(C(C)(C)O)cc2NC3=O)cccc1-n1c(=O)[nH]c2c(F)cccc2c1=O	> 1	–	–	solubility [1]: < 0.5 µg/mL
Cc1c(-c2c(F)cc3c(=O)[nH]c4cc(C(C)(C)O)ccc4n23)cccc1-n1c(=O)[nH]c2c(F)cccc2c1=O	0.0058	> 40	> 40	–
CC(C)(O)c1ccc2c(c1)[nH]c(=O)c1ccc(-c3cccc(-n4c(=O)[nH]c5c(F)cccc5c4=O)c3C(F)F)n12	0.0107	12.5	> 40	–
Cc1c(-c2ccc3c(=O)[nH]c4cc(C(F)(F)F)ccc4n23)cccc1-n1c(=O)[nH]c2c(F)cccc2c1=O	0.0607	–	–	–
Cc1cc2c(=O)[nH]c3cc(C(C)(C)O)ccc3n2c1-c1cccc(-n2c(=O)[nH]c3c(F)cccc3c2=O)c1C	0.011	6	15	Tmax [4]: 1 h; Cmax [5]: 5.16 ng/mL; AUC(0-t) at 5 h [6]: 8.45 ng·h/mL; MRT last at 5 h [7]: 1.17 h
Cc1c(-c2ccc3c(=O)[nH]c4cc(C(C)(C)O)ccc4n23)cccc1-n1c(=O)[nH]c2c(F)cc(F)cc2c1=O	0.0072	> 40	35.6	–
Cc1c(-c2ccc3c(=O)[nH]c4cc(C(C)(C)O)ccc4n23)cccc1-n1c(=O)[nH]c2c(F)cccc2c1=O	0.0083	11.6	19.9	Stability [8]: Stable; solubility [1]: 1.1 µg/mL (≈ 2.15 µM); Tmax [4]: 1 h; Cmax [5]: 14.2 ng/mL; AUC(0-t) at 5 h [6]: 39.7 ng·h/mL; MRT last at 5 h [7]: 1.02 h; AUC(0-t) at 24 h [9]: 51.9 ng·h/mL; inhibition in vivo at 50 mg/kg (U-937 [10]): 28.7%
Cc1c(-c2ccc3c(=O)[nH]c4cc(C(C)(C)O)ccc4n23)cccc1-n1c(=O)oc2c(F)cccc2c1=O	0.0542	–	–	–
Cc1c(-c2ccc3c(=O)[nH]c4cc(C(C)(C)O)ccc4n23)cc(F)cc1-n1c(=O)[nH]c2c(F)cccc2c1=O	0.0173	12	23.7	–
Cc1c(-c2cc(CO)c3c(=O)[nH]c4cc(C(C)(C)O)ccc4n23)cccc1-n1c(=O)[nH]c2c(F)cccc2c1=O	0.327	–	–	solubility [1]: 5.5 µg/mL (≈ 10.2 µM)
Cc1c(-c2c(C#N)cc3c(=O)[nH]c4cc(C(C)(C)O)ccc4n23)cccc1-n1c(=O)[nH]c2c(F)cccc2c1=O	> 1	–	–	–
Cc1c(-c2ccc(C(N)=O)n2-c2ccc(C(C)(C)O)cc2)cccc1-n1c(=O)[nH]c2c(F)cccc2c1=O	> 1	–	–	solubility [1]: 30.6 µg/mL (≈ 59.7 µM)
Cc1c(-c2c(F)cc(C(N)=O)c3[nH]c4c(c23)CC[C@H](C(C)(C)O)C4)cccc1-n1c(=O)c2cccc(F)c2n(C)c1=O [BMS-986142]	0.00042	9.3	13.6	–
CC(C)(O)c1ccc2c(c1)[nH]c(=O)c1ccc(-c3cccc(-n4c(=O)[nH]c5c(F)cccc5c4=O)c3)n12	0.0737	–	–	–
Cc1c(-c2ccc3c(=O)[nH]c(-c4ccc(C(C)(C)O)cc4)cn23)cccc1-n1c(=O)[nH]c2c(F)cccc2c1=O	0.0648	–	–	solubility [1]: < 0.5 µg/mL
Cc1c(-c2ccc3c(=O)[nH]c4cc(C(C)(C)O)ccc4n23)cccc1N1CNc2c(F)cccc2C1=O	0.0181	15.9	16.8	–
CC(C)(O)c1ccc2c(c1)[nH]c(=O)c1ccc(-c3cccc(-n4c(=O)[nH]c5c(F)cccc5c4=O)c3CO)n12	0.015	> 40	> 40	solubility [1]: 8.4 µg/mL (≈ 16 µM)
Cc1c(-c2ccc3c(=O)[nH]c4cc(C(C)(C)O)ccc4n23)cccc1-n1c(=O)[nH]c2cc(C3CC3)ccc2c1=O	0.0168	13.8	8.7	–
Cc1c(NC(=O)c2cccc(F)c2N)cccc1-c1ccc2c(=O)[nH]c3cc(C(C)(C)O)ccc3n12	0.0492	–	–	–
Cc1c(-c2ccc3c(=O)[nH]c4cc(C(C)(C)O)ccc4n23)cccc1N1C(=O)c2cccc(F)c2C1=O	0.0221	> 40	> 40	–
Cc1c(-c2ccc3c(=O)[nH]c4cc(C(C)(C)O)ccc4n23)cccc1-n1c(=O)[nH]c2cccc(F)c2c1=O	0.0121	6.2	17.9	–
Cc1c(-c2ccc3c(=O)[nH]c4cc(CN5CCOCC5)ccc4n23)cccc1-n1c(=O)[nH]c2c(F)cccc2c1=O	0.0334	–	–	–
Cc1c(-c2ccc3c(=O)[nH]c4cc(C(C)(C)O)ccc4n23)cccc1N1CC(=O)Nc2c(F)cccc2C1=O	0.0368	–	–	solubility [1]: 6.3 µg/mL (≈ 12 µM)
[2H]C([2H])([2H])C(O)(c1ccc2c(c1)[nH]c(=O)c1ccc(-c3cccc(-n4c(=O)[nH]c5c(F)cccc5c4=O)c3C)n12)C([2H])([2H])[2H]	0.0124	13.3	19	Tmax [4]: 0.5 h; Cmax [5]: 10.4 ng/mL; AUC(0-t) at 5 h [6]: 31.1 ng·h/mL; MRT last at 5 h [7]: 2.05 h
Cc1c(-c2ccc3c(=O)[nH]c4cc(C(F)F)ccc4n23)cccc1-n1c(=O)[nH]c2c(F)cccc2c1=O	0.0536	–	–	–
C=CC(=O)N1CCC[C@@H](n2nc(-c3ccc(Oc4ccccc4)cc3)c3c(N)ncnc32)C1 [IBRUTINIB]	–	3.7	15.1	inhibition in vivo at 50 mg/kg (U-937 [10]): 41.1%
